Measurements: patent US20240400591A1 (Jacobio Pharmaceuticals Co., Ltd., priority 2021, published 2024)
Where two headings read alike, the source gives them in different places.

Legend:
[1] = test system: NUGC-3_P53_Luc single clonal cell line (p53 Y220C); assay: Reporter gene assay (p53 RE luciferase); format: cell-based; conditions: luciferase reporter, 6 hours, normalized to Ref-1a (10 μM) high control, read-out: p53(Y220C)_NUGC-3 EC50
Method: NUGC-3_P53_Luc single clonal cell line was established using pGL4.38[luc2P/p53 RE/Hygro] Vector (E365A, promega). NUGC-3_P53-Luc single clonal cells were cultured in 37° C. cell incubator before use. NUGC-3-P53-Luc cells were collected and washed twice with PBS to remove phenol red and then resuspended in medium to a proper concentration. Tested compound dilutions were transferred into 384 well assay plates (PerkinElmer). A desired number of cells was seeded into the assay plate and cultured for 6 hours at 37° C. cell incubator. Britelite plus Luciferase Assay Reagent were added into each well and the luminescence value was recorded on Envision. The percent of activity value of compounds treated wells was normalized between high control and low control. Wells containing cells and Ref-1a (10 μM) sewved as high control, and wells containing cells and same percentage of DMSO sewved as low control. Activity value (%)=(Luminescence readoutCompound treated−Luminescence readoutLow control)/(Luminescence readoutHigh control−Luminescence readoutLow control)*100%. Then the data were analyzed either by fitting a 4-parameter logistic model or by Excel to calculate EC50 values and the EC50 was the concentration at 50% Activity on the curve.

[2] = test system: NUGC3 (P53 Y220C); assay: Cell viability assay (CellTiter-Glo, 6 days), NUGC3; format: cell-based; conditions: cell viability, 6 days, CellTiter-Glo, read-out: NUGC3 (P53 Y220C) IC50
Method: (§1) Cells were collected and counted. A desired number of cells was seeded into 96-well microplate and cultured in 37° C. cell incubator overnight. Compounds dissolved in cell culture medium were added into cell plate and cultured for 6 days. After balancing CellTiter-Glo reagent and cells at room temperature for 30 min, equal volume of CellTiter-Glo reagents was added to assay plate and shaken for 2 min for cell lysis. The cells were balanced at room temperature for 10 minutes and Luminescence signal was read using Envision. The percent of cell viability for compounds treated wells were normalized between High control and low control. Wells containing cell culture medium and same percentage DMSO sewved as Low control. Wells containing cells and same percentage DMSO sewved as High control. Cell viability (%)=(Luminescence readoutCompound treated−Luminescence readoutLow control)/(Luminescence readoutHigh control−Luminescence readoutLow control)*100%. Then the data were analyzed either by fitting a 4-parameter logistic model or by Excel to calculate IC50 values. And the IC50 was the concentration at 50% Cell viability on the curve.

[3] = test system: NUGC4 (P53 WT); assay: Cell viability assay (CellTiter-Glo, 6 days), NUGC4; format: cell-based; conditions: cell viability, 6 days, CellTiter-Glo, read-out: NUGC4 (P53 WT) IC50
Method: as §1

[4] = target: T1, His-p53 Y220C (94-294) protein (Homo sapiens, UniProt P04637, Y220C); assay: In vitro DNA binding assay (HTRF); format: biochemical; conditions: % activation normalized to 2 μM Ref-1a high control
T1 construct: His-p53 Y220C (94-294) protein

| SMILES | EC50 ([1]; Homo sapiens, NUGC-3) [nM] | IC50 ([2]; Homo sapiens, NUGC-3, 144 h) [nM] | IC50 ([3]; Homo sapiens, NUGC-4, 144 h) [nM] | EC50 [4] [nM] | EC50 ([1]; Homo sapiens, NUGC-3, 6 h) [nM] | IC50 [2] [nM] | IC50 [3] [nM] | EC50 [1] [nM] |
| --- | --- | --- | --- | --- | --- | --- | --- | --- |
| COc1cc(P(C)(C)=O)ccc1NCC#Cc1sc2c(NC3[C@@H]4COC[C@H]3CN(C)C4)cccc2c1CC(F)(F)F (single isomer, unassigned) [Example 197] | 120 | 390 | 11500 | 26 | – | – | – | – |
| COc1cc(P(C)(C)=O)ccc1NCC#Cc1sc2c(N[C@@H]3CCN(C4CCOC4)C[C@@H]3F)cccc2c1CC(F)(F)F (stereo partly drawn) [Example 157, (4-((3-(7-(((3S,4R)-3-fluoro-1-(tetrahydrofuran-3-yl)piperidin-4-yl)amino)-3-(2,2,2-trifluoroethyl)benzo[b]thiophen-2-yl)prop-2-yn-1-yl)amino)-3-methoxyphenyl)dimethylphosphine oxide] | 110 | 530 | 4840 | 68 | – | – | – | – |
| CN1CC[C@@H](Nc2cccc3c(CC(F)(F)F)c(C#CCNc4ccc(P(C)(C)=O)cc4-c4cnco4)sc23)[C@@H](F)C1 [Example 214, (4-((3-(7-(((3S,4R)-3-fluoro-1-methylpiperidin-4-yl)amino)-3-(2,2,2-trifluoroethyl)benzo[b]thiophen-2-yl)prop-2-yn-1-yl)amino)-3-(oxazol-5-yl)phenyl)dimethylphosphine oxide] | – | 380 | 13900 | 38 | 100 | – | – | – |
| COCCOCCNC(=O)c1ccc(NCC#Cc2sc3c(N[C@@H]4CCN(C)C[C@@H]4F)cccc3c2CC(F)(F)F)c(OC)c1 (racemic) [Example 96, 4-((3-(7-(((Z)-3-fluoro-1-methylpiperidin-4-yl)amino)-3-(2,2,2-trifluoroethyl)benzo[b]thiophen-2-yl)prop-2-yn-1-yl)amino)-3-methoxy-N-(2-(2-methoxyethoxy)ethyl)benzamide] | 130 | 1680 | 9930 | 103 | – | – | – | – |
| CN1CC[C@@H](Nc2cccc3c(CC(F)(F)F)c(C#CCNc4ccc(P(C)(C)=O)c5c4OCC5)sc23)[C@@H](F)C1 [Example 187, (7-((3-(7-(((3S,4R)-3-fluoro-1-methylpiperidin-4-yl)amino)-3-(2,2,2-trifluoroethyl)benzo[b]thiophen-2-yl)prop-2-yn-1-yl)amino)-2,3-dihydrobenzofuran-4-yl)dimethylphosphine oxide] | 50 | 290 | 5320 | 33 | – | – | – | – |
| CN1CC[C@@H](Nc2cccc3c(CC(F)(F)F)c(C#CCNC(=O)c4cnn(C(C)(C)C)c4)sc23)[C@@H](F)C1 (racemic) [Example 129, 1-(tert-butyl)-N-(3-(7-(((Z)-3-fluoro-1-methylpiperidin-4-yl)amino)-3-(2,2,2-trifluoroethyl)benzo[b]thiophen-2-yl)prop-2-yn-1-yl)-1H-pyrazole-4-carboxamide] | 180 | 1850 | 8950 | 69 | – | – | – | – |
| COCCNC(=O)c1ccc(NCC#Cc2sc3c(N[C@@H]4CCN(C)C[C@@H]4F)cccc3c2CC(F)(F)F)c(OC)c1 (relative stereo) [Example 85, 4-((3-(7-(((Z)-3-fluoro-1-methylpiperidin-4-yl)amino)-3-(2,2,2-trifluoroethyl)benzo[b]thiophen-2-yl)prop-2-yn-1-yl)amino)-3-methoxy-N-(2-methoxyethyl)benzamide] | 220 | 1540 | 8240 | 75 | – | – | – | – |
| COc1cc(P(C)(C)=O)ccc1NCC#Cc1sc2c(NC3CCN(C)CC3C(F)(F)F)cccc2c1CC(F)(F)F (racemic) [Example 170, (3-methoxy-4-((3-(7-(((E)-1-methyl-3-(trifluoromethyl)piperidin-4-yl)amino)-3-(2,2,2-trifluoroethyl)benzo[b]thiophen-2-yl)prop-2-yn-1-yl)amino)phenyl)di methylphosphine oxide (racemic)] | – | – | – | 76 | – | 1640 | 3720 | – |
| CN1CC[C@@H](Nc2cccc3c(CC(F)(F)F)c(C#CCNc4ccc(P(C)(C)=O)cc4F)sc23)[C@@H](F)C1 [Example 84, (3-fluoro-4-((3-(7-(((3S,4R)-3-fluoro-1-methylpiperidin-4-yl)amino)-3-(2,2,2-trifluoroethyl)benzo[b]thiophen-2-yl)prop-2-yn-1-yl)amino)phenyl)dimethylphosphine oxide] | – | 1420 | 11500 | 45 | 170 | – | – | – |
| CN1CCC(Nc2cccc3c(CC(F)(F)F)c(C#CCNc4ccc(P(C)(C)=O)cc4OCF)sc23)C(F)C1 (centres unmarked) [Example 10, (4-((3-(7-(((Z)-3-fluoro-1-methylpiperidin-4-yl)amino)-3-(2,2,2-trifluoroethyl)benzo[b]thiophen-2-yl)prop-2-yn-1-yl)amino)-3-(fluoromethoxy)phenyl)dimethylphosphine oxide] | – | – | – | 56 | – | 1680 | 21000 | 230 |
| CCN1CC[C@H](Nc2cccc3c(CC(F)(F)F)c(C#CCNc4ccc(P(C)(C)=O)cc4OC)sc23)[C@H](F)C1 [Example 136, (4-((3-(7-(((3R,4S)-1-ethyl-3-fluoropiperidin-4-yl)amino)-3-(2,2,2-trifluoroethyl)benzo[b]thiophen-2-yl)prop-2-yn-1-yl)amino)-3-methoxyphenyl)dimethylphosphine oxide] | – | 1630 | 4880 | 46 | 240 | – | – | – |
| CN1CC[C@@H](Nc2cccc3c(CC(F)(F)F)c(C#CCNc4ccc(P(C)(C)=O)cc4C#N)sc23)[C@@H](F)C1 [Example 211, 5-(dimethylphosphoryl)-2-((3-(7-(((3S,4R)-3-fluoro-1-methylpiperidin-4-yl)amino)-3-(2,2,2-trifluoroethyl)benzo[b]thiophen-2-yl)prop-2-yn-1-yl)amino)benzonitrile] | – | 1070 | 11300 | 52 | 220 | – | – | – |
| COc1cc(P(C)(C)=O)ccc1NCC#Cc1sc2c(NC3CCN(C)CC3C(F)(F)F)cccc2c1CC(F)(F)F (racemic) [Example 169, (3-methoxy-4-((3-(7-(((Z)-1-methyl-3-(trifluoromethyl)piperidin-4-yl)amino)-3-(2,2,2-trifluoroethyl)benzo[b]thiophen-2-yl)prop-2-yn-1-yl)amino)phenyl)dimethylphosphine oxide] | – | 1630 | 4330 | 70 | – | – | – | – |
| CN1CC[C@@H](Nc2cccc3c(CC(F)(F)F)c(C#CCNc4ccc(P(C)(C)=O)cc4-c4cc[nH]n4)sc23)[C@@H](F)C1 [Example 200, (4-((3-(7-(((3S,4R)-3-fluoro-1-methylpiperidin-4-yl)amino)-3-(2,2,2-trifluoroethyl)benzo[b]thiophen-2-yl)prop-2-yn-1-yl)amino)-3-(1H-pyrazol-3-yl)phenyl)dimethylphosphine oxide] | – | – | 13100 | 25 | 60 | – | – | – |
| CN1CC[C@@H](Nc2cccc3c(CC(F)(F)F)c(C#CCNc4ccc(P(C)(C)=O)cc4C(=O)NC4COC4)sc23)[C@@H](F)C1 [Example 217, 5-(dimethylphosphoryl)-2-((3-(7-(((3S,4R)-3-fluoro-1-methylpiperidin-4-yl)amino)-3-(2,2,2-trifluoroethyl)benzo[b]thiophen-2-yl)prop-2-yn-1-yl)amino)-N-(oxetan-3-yl)benzamide] | 150 | 320 | 15400 | – | – | – | – | – |
| CN1CCC(Nc2cccc3c(CC(F)(F)F)c(C#CCNc4ccc(P(C)(C)=O)cc4OC4CC4)sc23)[C@@H](F)C1 (stereo in doubt) [Example 106, (3-cyclopropoxy-4-((3-(7-(((Z)-3-fluoro-1-methylpiperidin-4-yl)amino)-3-(2,2,2-trifluoroethyl)benzo[b]thiophen-2-yl)prop-2-yn-1-yl)amino)phenyl)dimethylphosphine oxide] | – | 780 | 3800 | – | 90 | – | – | – |
